Where only a bound is given, the exact number is not on record here.

As usually defined, the IC50 is the concentration at which inhibition is half-maximal.

For the experiment, the target named is T1, GAL4-RORγ (GAL4 DBD fused to the ROR gamma ligand-binding domain) (Homo sapiens, UniProt P51449).
T1 construct: expressed in transfected cells; host or cells: HG5LN (HeLa line with GAL4-responsive luciferase reporter)
T1 sequence (P51449 269-508 limits assumed): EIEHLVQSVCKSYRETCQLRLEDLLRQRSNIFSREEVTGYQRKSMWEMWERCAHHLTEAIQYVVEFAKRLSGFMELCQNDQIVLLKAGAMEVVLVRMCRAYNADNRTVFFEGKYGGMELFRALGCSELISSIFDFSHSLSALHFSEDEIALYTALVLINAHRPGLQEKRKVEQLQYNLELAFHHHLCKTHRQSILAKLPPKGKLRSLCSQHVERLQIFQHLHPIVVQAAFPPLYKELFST
Briefly: GAL4-RORγ transactivation (luciferase reporter, HG5LN HeLa line). The format is cell-based. Particulars: HG5LN HeLa cells, 18 hours incubation, luciferase luminescence, read-out: IC50 hRORg. The source says: In the tables described above, the median inhibitory concentrations IC50 for the compounds belonging to formula (I) according to the invention have been given according to the following models:
GAL4-RORγ Transactivation
The RORγ transactivation model was developed from the line HG5LN, which is a HeLa line that stably expresses a luciferase reporter gene controlled by a pentamer of the GAL4 recognition domain of yeast and of a β-globin promoter. The HG5LN line was stably transfected by the DNA-binding domain (DBD) of GAL4 fused to the ROR gamma ligand-binding domain (LBD). Molecules that inhibit the ROR gamma constitutive activity reduce the luciferase expression, thus leading to a reduction in the emitted luminescence.
The cells are seeded in 384-well plates (5000 cells in 45 μL/well of culture medium containing 10% fetal calf serum) and incubated for 4 hours at 37° C., 5% CO2. 5 μL of the test molecules (compounds described in the tables described above) are then added to each well and the plates are incubated for 18 hours at a temperature of 37° C. under 5% of CO2. 20 μL of luciferase substrate (Promega) are added to each well and the luminescence emitted is read by a microplate reader.
The luminescence units (“RLU”) are normalized by positive controls (“POS” containing a saturated concentration of N-(2,2,2-trifluoroethyl)-N-[4-[2,2,2-trifluoro-1-hydroxy-1-(trifluoromethyl)ethyl]phenyl])benzenesulfonamide and negative controls (“NEG” containing DMSO): % inhibition=((RLU−NEG)*100)/(POS−NEG). The IC50 values are calculated from a 4-parameter logistic model using the XLFit software (IDBS).
(In general: A reporter such as luciferase makes a cellular process visible.)
With `CCc1ccc(N(CC(C)C)S(=O)(=O)c2ccc3c(cnn3C3CCOCC3)c2)cc1` [Compound 38, 1-(tetrahydropyran-4-yl)-1H-indazole-5-sulfonic acid (4-ethylphenyl)isobutylamide], the half-maximal inhibitory concentration (IC50) was greater than 1 µM.

With `CCc1ccc(N(CC(C)C)S(=O)(=O)c2ccc3c(cnn3C3CCN(C(C)=O)C3)c2)cc1` (centres unmarked) [Compound 40, 1-(1-acetylpyrrolidin-3-yl)-1H-indazole-5-sulfonic acid (4-ethylphenyl)isobutylamide], the IC50 is greater than 1 µM.

On to `CCc1ccc(N(C2CCC2)S(=O)(=O)c2ccc3c(cnn3CC3CCOCC3)c2)cc1` [Compound 41, 1-(tetrahydropyran-4-ylmethyl)-1H-indazole-5-sulfonic acid cyclobutyl(4-ethylphenyl)amide], for which the half-inhibitory concentration (IC50) was greater than 1 µM.

For the compound `Cc1ccc(F)cc1N(CC(C)C)S(=O)(=O)c1ccc2c(cnn2CC2CCOCC2)c1` [Compound 42, 1-(tetrahydropyran-4-ylmethyl)-1H-indazole-5-sulfonic acid (5-fluoro-2-methylphenyl)isobutylamide], the IC50 is 0.1 to 1 µM.

Consider `Cc1c(F)cccc1N(CC(C)C)S(=O)(=O)c1ccc2c(cnn2CC2CCOCC2)c1` [Compound 43, 1-(tetrahydropyran-4-ylmethyl)-2H-indazole-5-sulfonic acid (3-fluoro-2-methylphenyl)isobutylamide], for which the IC50 is 0.1 to 1 µM.

As to `CC(C)CN(c1cccc(Cl)c1)S(=O)(=O)c1ccc2c(cnn2CC2CCOCC2)c1` [Compound 44, 1-(tetrahydropyran-4-ylmethyl)-1H-indazole-5-sulfonic acid (5-chlorophenyl)isobutylamide], the IC50 is greater than 1 µM.

Take `CC(C)CN(c1ccccc1Cl)S(=O)(=O)c1ccc2c(cnn2CC2CCOCC2)c1` [Compound 45, 1-(tetrahydropyran-4-ylmethyl)-1H-indazole-5-sulfonic acid (2-chlorophenyl)isobutylamide]: the IC50 was greater than 1 µM.

Turning to `CC(C)CN(c1ccc(F)cc1)S(=O)(=O)c1ccc2c(cnn2CC2CCOCC2)c1` [Compound 46, 1-(tetrahydropyran-4-ylmethyl)-1H-indazole-5-sulfonic acid (4-fluorophenyl)isobutylamide], the IC50 is greater than 1 µM.

Turning to `Cc1ccc(N(CC(C)C)S(=O)(=O)c2ccc3c(cnn3CC3CCOCC3)c2)cc1` [Compound 47, 1-(tetrahydropyran-4-ylmethyl)-1H-indazole-5-sulfonic acid isobutyl-p-tolylamide], the concentration for half-maximal inhibition (IC50) is greater than 1 µM.

Turning to `Cc1ccccc1N(CC(C)C)S(=O)(=O)c1ccc2c(cnn2CC2CCOCC2)c1` [Compound 48, 1-(tetrahydropyran-4-ylmethyl)-1H-indazole-5-sulfonic acid isobutyl-o-tolylamide], the concentration for half-maximal inhibition (IC50) is greater than 1 µM.

With `CC(C)CN(c1ccc(OC(F)(F)F)cc1)S(=O)(=O)c1ccc2c(cnn2CC2CCOCC2)c1` [Compound 49, 1-(tetrahydropyran-4-ylmethyl)-1H-indazole-5-sulfonic acid (4-trifluoromethoxyphenyl)isobutylamide], the IC50 is greater than 1 µM.

As to `CC(C)CN(c1ccc(C(C)C)cn1)S(=O)(=O)c1ccc2c(cnn2CC2CCOCC2)c1` [Compound 50, 1-(tetrahydropyran-4-ylmethyl)-1H-indazole-5-sulfonic acid isobutyl(5-isopropylpyridin-2-yl)amide], the IC50 is greater than 1 µM.

For the compound `CC(C)CN(Cc1cccc(Cl)c1)S(=O)(=O)c1ccc2c(cnn2CC2CCOCC2)c1` [Compound 51, 1-(tetrahydropyran-4-ylmethyl)-1H-indazole-5-sulfonic acid (3-chlorobenzyl)isobutylamide], the IC50 is greater than 1 µM.

On to `CC(C)CN(Cc1ccccc1C(F)(F)F)S(=O)(=O)c1ccc2c(cnn2CC2CCOCC2)c1` [Compound 52, 1-(tetrahydropyran-4-ylmethyl)-1H-indazole-5-sulfonic acid isobutyl(2-trifluoromethylbenzyl)amide], for which the half-inhibitory concentration (IC50) was in the range of 0.1 to 1 µM.
